For experiment [1], the target named is Sodium channel protein type 9 subunit alpha (Homo sapiens, UniProt Q15858). The experiment in a line: Inhibition of human NaV1.7 at -140 mV holding potential by whole-cell patch clamp assay.
In experiment [2] the target is Sodium channel protein type 5 subunit alpha (Homo sapiens, UniProt Q14524). The experiment is described as follows: Inhibition of human NaV1.5 at -140 mV holding potential by whole-cell patch clamp assay. In general terms: Patch clamp records ionic current or voltage across a cell membrane.
Sodium channel protein type 5 subunit alpha, sequence (Q14524 whole entry): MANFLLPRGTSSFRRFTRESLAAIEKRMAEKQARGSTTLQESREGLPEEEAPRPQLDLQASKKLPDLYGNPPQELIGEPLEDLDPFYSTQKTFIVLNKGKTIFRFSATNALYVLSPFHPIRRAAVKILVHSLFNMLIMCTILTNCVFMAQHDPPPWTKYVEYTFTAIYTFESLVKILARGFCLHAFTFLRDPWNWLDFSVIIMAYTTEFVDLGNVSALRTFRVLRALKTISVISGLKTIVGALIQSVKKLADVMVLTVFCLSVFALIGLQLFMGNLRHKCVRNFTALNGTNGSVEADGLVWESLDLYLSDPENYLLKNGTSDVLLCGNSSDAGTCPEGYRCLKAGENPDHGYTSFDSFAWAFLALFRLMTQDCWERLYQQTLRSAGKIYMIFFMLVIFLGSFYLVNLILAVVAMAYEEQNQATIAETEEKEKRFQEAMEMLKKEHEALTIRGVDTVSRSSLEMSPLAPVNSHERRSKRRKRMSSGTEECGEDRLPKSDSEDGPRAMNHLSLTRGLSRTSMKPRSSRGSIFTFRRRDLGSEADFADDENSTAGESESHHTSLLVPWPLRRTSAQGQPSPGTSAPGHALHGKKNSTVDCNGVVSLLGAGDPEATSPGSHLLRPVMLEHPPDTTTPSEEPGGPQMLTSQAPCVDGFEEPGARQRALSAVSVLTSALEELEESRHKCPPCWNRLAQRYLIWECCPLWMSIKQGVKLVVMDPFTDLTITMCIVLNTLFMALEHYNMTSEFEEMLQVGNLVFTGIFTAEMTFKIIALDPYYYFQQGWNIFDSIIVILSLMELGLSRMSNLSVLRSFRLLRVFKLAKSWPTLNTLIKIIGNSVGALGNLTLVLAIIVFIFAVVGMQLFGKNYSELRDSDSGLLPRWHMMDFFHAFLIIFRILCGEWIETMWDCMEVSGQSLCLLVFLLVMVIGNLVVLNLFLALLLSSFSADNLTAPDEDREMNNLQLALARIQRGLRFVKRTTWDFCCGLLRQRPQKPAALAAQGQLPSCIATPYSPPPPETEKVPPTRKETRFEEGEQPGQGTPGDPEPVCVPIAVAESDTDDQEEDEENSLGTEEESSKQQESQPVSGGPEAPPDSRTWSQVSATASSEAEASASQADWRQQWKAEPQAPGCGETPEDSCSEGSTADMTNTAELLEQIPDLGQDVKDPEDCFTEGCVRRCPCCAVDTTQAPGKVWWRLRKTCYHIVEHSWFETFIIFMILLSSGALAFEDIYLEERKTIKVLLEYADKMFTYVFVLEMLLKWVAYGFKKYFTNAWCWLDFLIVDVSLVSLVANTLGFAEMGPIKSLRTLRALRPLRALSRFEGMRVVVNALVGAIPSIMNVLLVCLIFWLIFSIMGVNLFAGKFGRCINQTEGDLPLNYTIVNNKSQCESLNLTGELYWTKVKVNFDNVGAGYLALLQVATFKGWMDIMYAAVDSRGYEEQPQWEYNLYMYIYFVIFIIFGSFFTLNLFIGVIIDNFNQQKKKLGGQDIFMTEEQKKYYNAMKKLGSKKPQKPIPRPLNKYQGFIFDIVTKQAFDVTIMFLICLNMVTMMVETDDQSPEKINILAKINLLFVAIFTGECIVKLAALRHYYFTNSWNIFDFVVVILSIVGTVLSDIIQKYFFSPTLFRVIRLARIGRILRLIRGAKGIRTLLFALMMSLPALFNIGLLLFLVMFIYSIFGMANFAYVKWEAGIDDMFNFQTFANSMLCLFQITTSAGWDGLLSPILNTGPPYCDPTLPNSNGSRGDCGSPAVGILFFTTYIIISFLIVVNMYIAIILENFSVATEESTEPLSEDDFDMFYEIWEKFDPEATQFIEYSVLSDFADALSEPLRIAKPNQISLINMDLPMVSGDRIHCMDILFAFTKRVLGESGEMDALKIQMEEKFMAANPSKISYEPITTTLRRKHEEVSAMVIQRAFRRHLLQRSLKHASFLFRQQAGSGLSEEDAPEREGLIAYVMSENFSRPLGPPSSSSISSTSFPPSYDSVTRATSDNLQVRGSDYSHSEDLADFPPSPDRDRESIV

The record followed here is ChEMBL document CHEMBL3414527, “Engineering potent and selective analogues of GpTx-1, a tarantula venom peptide antagonist of the Na(V)1.7 sodium channel” (J Med Chem, 2015).

pIC50: −log10 of the molar value. Bridge positions count the residues as written; N and C are the ends. Peptide text beside a SMILES is read from it.

Sodium channel protein type 9 subunit alpha, sequence (Q15858 whole entry): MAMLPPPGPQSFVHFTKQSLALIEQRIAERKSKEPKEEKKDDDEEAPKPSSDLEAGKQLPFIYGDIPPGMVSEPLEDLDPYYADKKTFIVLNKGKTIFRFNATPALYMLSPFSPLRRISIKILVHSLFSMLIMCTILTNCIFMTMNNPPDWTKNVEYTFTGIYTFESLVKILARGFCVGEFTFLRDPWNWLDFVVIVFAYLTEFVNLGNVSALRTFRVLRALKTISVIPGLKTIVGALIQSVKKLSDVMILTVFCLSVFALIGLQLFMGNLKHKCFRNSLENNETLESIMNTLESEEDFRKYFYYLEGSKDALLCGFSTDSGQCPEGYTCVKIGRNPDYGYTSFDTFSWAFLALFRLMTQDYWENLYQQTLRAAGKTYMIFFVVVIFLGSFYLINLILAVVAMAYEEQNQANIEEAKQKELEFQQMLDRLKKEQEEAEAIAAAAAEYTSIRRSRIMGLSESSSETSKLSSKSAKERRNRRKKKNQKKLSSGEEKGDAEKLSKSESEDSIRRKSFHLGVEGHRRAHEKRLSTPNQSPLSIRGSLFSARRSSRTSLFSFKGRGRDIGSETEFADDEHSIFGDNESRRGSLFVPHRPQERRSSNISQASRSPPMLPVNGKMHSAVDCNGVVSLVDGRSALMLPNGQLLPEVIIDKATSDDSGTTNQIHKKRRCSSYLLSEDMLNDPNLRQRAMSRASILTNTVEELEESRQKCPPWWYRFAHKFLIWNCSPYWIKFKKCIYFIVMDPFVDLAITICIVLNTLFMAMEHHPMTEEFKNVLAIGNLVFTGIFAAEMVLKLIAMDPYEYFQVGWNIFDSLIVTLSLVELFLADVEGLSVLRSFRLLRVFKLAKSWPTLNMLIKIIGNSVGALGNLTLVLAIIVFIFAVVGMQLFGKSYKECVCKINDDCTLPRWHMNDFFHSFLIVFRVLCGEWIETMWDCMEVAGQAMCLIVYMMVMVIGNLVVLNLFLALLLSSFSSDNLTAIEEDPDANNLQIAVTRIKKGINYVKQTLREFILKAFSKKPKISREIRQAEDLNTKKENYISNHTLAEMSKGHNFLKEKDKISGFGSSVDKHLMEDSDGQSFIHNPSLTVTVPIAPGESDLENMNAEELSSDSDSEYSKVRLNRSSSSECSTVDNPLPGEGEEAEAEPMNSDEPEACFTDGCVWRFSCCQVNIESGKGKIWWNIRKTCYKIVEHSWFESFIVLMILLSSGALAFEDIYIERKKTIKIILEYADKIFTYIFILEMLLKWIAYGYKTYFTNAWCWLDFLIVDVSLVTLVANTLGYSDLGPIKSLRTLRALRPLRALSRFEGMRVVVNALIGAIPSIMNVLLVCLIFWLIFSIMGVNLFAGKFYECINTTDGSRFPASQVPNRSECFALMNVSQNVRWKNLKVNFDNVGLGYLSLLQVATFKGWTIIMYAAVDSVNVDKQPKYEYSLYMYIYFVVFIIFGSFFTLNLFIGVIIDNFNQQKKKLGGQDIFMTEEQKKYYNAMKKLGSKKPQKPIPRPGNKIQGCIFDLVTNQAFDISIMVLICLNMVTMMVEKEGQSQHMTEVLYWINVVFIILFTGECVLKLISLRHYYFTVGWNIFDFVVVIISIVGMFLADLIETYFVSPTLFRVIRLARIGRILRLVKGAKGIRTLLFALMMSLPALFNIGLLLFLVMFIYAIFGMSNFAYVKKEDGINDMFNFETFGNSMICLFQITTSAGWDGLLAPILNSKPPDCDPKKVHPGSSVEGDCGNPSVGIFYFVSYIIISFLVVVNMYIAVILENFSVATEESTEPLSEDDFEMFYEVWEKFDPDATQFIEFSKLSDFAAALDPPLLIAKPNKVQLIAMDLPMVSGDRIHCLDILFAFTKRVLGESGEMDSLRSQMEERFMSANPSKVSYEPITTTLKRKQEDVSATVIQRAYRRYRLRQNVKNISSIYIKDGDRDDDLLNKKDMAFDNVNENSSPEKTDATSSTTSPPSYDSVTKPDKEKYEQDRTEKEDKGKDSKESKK

One may read the pIC50 as −log10 of the IC50, conventionally taken in molar units. Low readings indicate a high IC50, high ones a low IC50. As to `CC[C@@H]1NC(=O)CNC(=O)[C@H](CC(C)C)NC(=O)[C@@H](NC(=O)[C@@H](N)CC(=O)O)CSSC[C@@H]2NC(=O)[C@@H]3CSSC[C@@H](C(=O)N[C@@H](CCCCN)C(=O)N[C@@H](Cc4ccc(O)cc4)C(=O)N[C@H](C(=O)N[C@@H](Cc4ccccc4)C(N)=O)C(C)C)NC(=O)[C@H](Cc4c[nH]c5ccccc45)NC(=O)[C@H](CCCCN)NC(=O)[C@H](Cc4cnc[nH]4)NC(=O)[C@H]([C@@H](C)O)NC(=O)[C@H](CCCNC(=N)N)NC(=O)[C@H](CO)NC(=O)[C@H](CSSC[C@H](NC(=O)[C@H](CCCCN)NC(=O)[C@H](CCCNC(=N)N)NC(=O)[C@H](CCSC)NC1=O)C(=O)N[C@@H]([C@@H](C)CC)C(=O)N1CCC[C@H]1C(=O)N[C@@H](CC(=O)O)C(=O)N[C@@H](CC(N)=O)C(=O)N[C@@H](CC(=O)O)C(=O)N[C@@H](CCCCN)C(=O)N3)NC(=O)[C@H](C(C)C)NC(=O)[C@H](CC(C)C)NC(=O)[C@H](CC(N)=O)NC(=O)[C@@H]1CCCN1C(=O)[C@H](CCCNC(=N)N)NC2=O`, the results for the pIC50 in experiment [1] and in experiment [2] were 7.10 and below 5.00, respectively.
On to `CCC[C@@H]1NC(=O)CNC(=O)[C@H](CC(C)C)NC(=O)[C@@H](NC(=O)[C@@H](N)CC(=O)O)CSSC[C@@H]2NC(=O)[C@@H]3CSSC[C@@H](C(=O)N[C@@H](CCCCN)C(=O)N[C@@H](Cc4ccc(O)cc4)C(=O)N[C@H](C(=O)N[C@@H](Cc4ccccc4)C(N)=O)C(C)C)NC(=O)[C@H](Cc4c[nH]c5ccccc45)NC(=O)[C@H](CCCCN)NC(=O)[C@H](Cc4cnc[nH]4)NC(=O)[C@H]([C@@H](C)O)NC(=O)[C@H](CCCNC(=N)N)NC(=O)[C@H](CO)NC(=O)[C@H](CSSC[C@H](NC(=O)[C@H](CCCCN)NC(=O)[C@H](CCCNC(=N)N)NC(=O)[C@H](CCSC)NC1=O)C(=O)N[C@@H]([C@@H](C)CC)C(=O)N1CCC[C@H]1C(=O)N[C@@H](CC(=O)O)C(=O)N[C@@H](CC(N)=O)C(=O)N[C@@H](CC(=O)O)C(=O)N[C@@H](CCCCN)C(=O)N3)NC(=O)[C@H](C(C)C)NC(=O)[C@H](CC(C)C)NC(=O)[C@H](CC(N)=O)NC(=O)[C@@H]1CCCN1C(=O)[C@H](CCCNC(=N)N)NC2=O`, for which the figures for the pIC50 in experiment [1] and in experiment [2] were 7.41 and below 5.00, respectively.
For the molecule `CC[C@H](C)[C@@H]1NC(=O)[C@@H]2CSSC[C@@H]3NC(=O)[C@H](C(C)C)NC(=O)[C@H](CC(C)C)NC(=O)[C@H](CC(N)=O)NC(=O)[C@@H]4CCCN4C(=O)[C@H](CCCNC(=N)N)NC(=O)[C@H](CSSC[C@H](NC(=O)[C@@H](N)CC(=O)O)C(=O)N[C@@H](CC(C)C)C(=O)NCC(=O)N(C)[C@@H](CC(C)C)C(=O)N[C@@H](CCSC)C(=O)N[C@@H](CCCNC(=N)N)C(=O)N[C@@H](CCCCN)C(=O)N2)NC(=O)[C@H](CSSC[C@@H](C(=O)N[C@@H](CCCCN)C(=O)N[C@@H](Cc2ccc(O)cc2)C(=O)N[C@H](C(=O)N[C@@H](Cc2ccccc2)C(N)=O)C(C)C)NC(=O)[C@H](Cc2c[nH]c4ccccc24)NC(=O)[C@H](CCCCN)NC(=O)[C@H](Cc2cnc[nH]2)NC(=O)[C@H]([C@@H](C)O)NC(=O)[C@H](CCCNC(=N)N)NC(=O)[C@H](CO)NC3=O)NC(=O)[C@H](CCCCN)NC(=O)[C@H](CC(=O)O)NC(=O)[C@H](CC(N)=O)NC(=O)[C@H](CC(=O)O)NC(=O)[C@@H]2CCCN2C1=O`, the values for the pIC50 in experiment [1] and in experiment [2] were 7.60 and below 5.00, respectively.
`CC[C@H](C)[C@@H]1NC(=O)[C@@H]2CSSC[C@@H]3NC(=O)[C@H](C(C)C)NC(=O)[C@H](CC(C)C)NC(=O)[C@H](CC(N)=O)NC(=O)[C@@H]4CCCN4C(=O)[C@H](CCCNC(=N)N)NC(=O)[C@H](CSSC[C@H](NC(=O)[C@@H](N)CC(=O)O)C(=O)N[C@@H](CC(C)C)C(=O)NCC(=O)N[C@@H](C(C)(C)C)C(=O)N[C@@H](CCSC)C(=O)N[C@@H](CCCNC(=N)N)C(=O)N[C@@H](CCCCN)C(=O)N2)NC(=O)[C@H](CSSC[C@@H](C(=O)N[C@@H](CCCCN)C(=O)N[C@@H](Cc2ccc(O)cc2)C(=O)N[C@H](C(=O)N[C@@H](Cc2ccccc2)C(N)=O)C(C)C)NC(=O)[C@H](Cc2c[nH]c4ccccc24)NC(=O)[C@H](CCCCN)NC(=O)[C@H](Cc2cnc[nH]2)NC(=O)[C@H]([C@@H](C)O)NC(=O)[C@H](CCCNC(=N)N)NC(=O)[C@H](CO)NC3=O)NC(=O)[C@H](CCCCN)NC(=O)[C@H](CC(=O)O)NC(=O)[C@H](CC(N)=O)NC(=O)[C@H](CC(=O)O)NC(=O)[C@@H]2CCCN2C1=O`: the pIC50 in experiment [1] is 7.62; in experiment [2] it was below 5.00.
With `CC[C@H](C)[C@@H]1NC(=O)[C@@H]2CSSC[C@@H]3NC(=O)[C@H](C(C)C)NC(=O)[C@H](CC(C)C)NC(=O)[C@H](CC(N)=O)NC(=O)[C@@H]4CCCN4C(=O)[C@H](CCCNC(=N)N)NC(=O)[C@H](CSSC[C@H](NC(=O)[C@@H](N)CC(=O)O)C(=O)N[C@@H](CC(C)C)C(=O)NCC(=O)N[C@@H](C)C(=O)N[C@@H](Cc4cccc5ccccc45)C(=O)N[C@@H](CCCNC(=N)N)C(=O)N[C@@H](CCCCN)C(=O)N2)NC(=O)[C@H](CSSC[C@@H](C(=O)N[C@@H](CCCCN)C(=O)N[C@@H](Cc2ccc(O)cc2)C(=O)N[C@H](C(=O)N[C@@H](Cc2ccccc2)C(N)=O)C(C)C)NC(=O)[C@H](Cc2c[nH]c4ccccc24)NC(=O)[C@H](CCCCN)NC(=O)[C@H](Cc2cnc[nH]2)NC(=O)[C@H]([C@@H](C)O)NC(=O)[C@H](CCCNC(=N)N)NC(=O)[C@H](CO)NC3=O)NC(=O)[C@H](CCCCN)NC(=O)[C@H](CC(=O)O)NC(=O)[C@H](CC(N)=O)NC(=O)[C@H](CC(=O)O)NC(=O)[C@@H]2CCCN2C1=O`, the pIC50 in experiment [1] is 8.52; in experiment [2], 5.44.
With `CC[C@H](C)[C@@H]1NC(=O)[C@@H]2CSSC[C@@H]3NC(=O)[C@H](C(C)C)NC(=O)[C@H](CC(C)C)NC(=O)[C@H](CC(N)=O)NC(=O)[C@@H]4CCCN4C(=O)[C@H](CCCNC(=N)N)NC(=O)[C@H](CSSC[C@H](NC(=O)[C@@H](N)CC(=O)O)C(=O)N[C@@H](C)C(=O)NCC(=O)N[C@@H](Cc4ccccc4)C(=O)N[C@@H](CCSC)C(=O)N[C@@H](CCCNC(=N)N)C(=O)N[C@@H](CCCCN)C(=O)N2)NC(=O)[C@H](CSSC[C@@H](C(=O)N[C@@H](CCCCN)C(=O)N[C@@H](Cc2ccc(O)cc2)C(=O)N[C@H](C(=O)N[C@@H](Cc2ccccc2)C(N)=O)C(C)C)NC(=O)[C@H](Cc2c[nH]c4ccccc24)NC(=O)[C@H](CCCCN)NC(=O)[C@H](Cc2cnc[nH]2)NC(=O)[C@H]([C@@H](C)O)NC(=O)[C@H](CCCNC(=N)N)NC(=O)[C@H](CO)NC3=O)NC(=O)[C@H](CCCCN)NC(=O)[C@H](CC(=O)O)NC(=O)[C@H](CC(N)=O)NC(=O)[C@H](CC(=O)O)NC(=O)[C@@H]2CCCN2C1=O` (H-DCAGFMRKCIPDNDKCCRPNLVCSRTHKWCKYVF-NH2; disulfide 2-17, 9-23, 16-30), the pIC50 is 6.37 in experiment [1] and below 5.30 in experiment [2].
As for `CC[C@H](C)[C@@H]1NC(=O)[C@@H]2CSSC[C@@H]3NC(=O)[C@H](C(C)C)NC(=O)[C@H](CC(C)C)NC(=O)[C@H](CC(N)=O)NC(=O)[C@@H]4CCCN4C(=O)[C@H](CCCNC(=N)N)NC(=O)[C@H](CSSC[C@H](NC(=O)[C@@H](N)CC(=O)O)C(=O)N[C@@H](CC(C)C)C(=O)NCC(=O)N[C@@H](C)C(=O)N[C@@H](Cc4ccccc4)C(=O)N[C@@H](CCCNC(=N)N)C(=O)N[C@@H](CCCCN)C(=O)N2)NC(=O)[C@H](CSSC[C@@H](C(=O)N[C@@H](CCCCN)C(=O)N[C@@H](Cc2ccc(O)cc2)C(=O)N[C@H](C(=O)N[C@@H](Cc2ccccc2)C(N)=O)C(C)C)NC(=O)[C@H](Cc2c[nH]c4ccccc24)NC(=O)[C@H](CCCNC(=N)N)NC(=O)[C@H](Cc2cnc[nH]2)NC(=O)[C@H](CC(C)C)NC(=O)[C@H](CCCNC(=N)N)NC(=O)[C@H](CO)NC3=O)NC(=O)[C@H](CCCCN)NC(=O)[C@H](CC(=O)O)NC(=O)[C@H](CC(N)=O)NC(=O)[C@H](CC(=O)O)NC(=O)[C@@H]2CCCN2C1=O` (H-DCLGAFRKCIPDNDKCCRPNLVCSRLHRWCKYVF-NH2; disulfide 2-17, 9-23, 16-30), the pIC50 in experiment [1] was 8.80; in experiment [2] it was below 5.00.
For `CC[C@H](C)[C@@H]1NC(=O)[C@@H]2CSSC[C@@H]3NC(=O)[C@H](C(C)C)NC(=O)[C@H](CC(C)C)NC(=O)[C@H](CC(N)=O)NC(=O)[C@@H]4CCCN4C(=O)[C@H](CCCNC(=N)N)NC(=O)[C@H](CSSC[C@H](NC(=O)[C@@H](N)CC(=O)O)C(=O)N[C@@H](CC(C)C)C(=O)NCC(=O)N[C@@H](C)C(=O)N[C@@H](CCSC)C(=O)N[C@@H](CCCNC(=N)N)C(=O)N[C@@H](CCCCN)C(=O)N2)NC(=O)[C@H](CSSC[C@@H](C(=O)N[C@@H](CCCCN)C(=O)N[C@@H](Cc2ccc(O)cc2)C(=O)N[C@H](C(=O)N[C@@H](Cc2ccccc2)C(N)=O)C(C)C)NC(=O)[C@H](Cc2c[nH]c4ccccc24)NC(=O)[C@H](CCCCN)NC(=O)[C@H](Cc2cnc[nH]2)NC(=O)[C@H](CC(C)C)NC(=O)[C@H](CCCNC(=N)N)NC(=O)[C@H](CO)NC3=O)NC(=O)[C@H](CCCCN)NC(=O)[C@H](CC(=O)O)NC(=O)[C@H](CC(N)=O)NC(=O)[C@H](CC(=O)O)NC(=O)[C@@H]2CCCN2C1=O` (H-DCLGAMRKCIPDNDKCCRPNLVCSRLHKWCKYVF-NH2; disulfide 2-17, 9-23, 16-30), the figures for the pIC50 in experiment [1] and in experiment [2] were 7.27 and below 5.00, respectively.
